From US7691856B2, “Thiadiazoledioxides and thiadiazoleoxides as CXC- and CC-chemokine receptor ligands” (Schering Corporation, priority 2002, dated 2010) come the findings set out here.

For orientation: Ki means a dissociation constant, usually derived from enzyme kinetics or from competition with a known ligand. Low values mean tighter binding, high ones weaker binding. What is called EC50 is the concentration at which the effect is half-maximal. A low value points to greater potency.

The target in experiment [1] is T1, hCXCR1 (Homo sapiens, UniProt P25024).
T1 construct: purchased Biosignal / Biosignal Packard; alternatively Euroscreen; host or cells: CHO cells over-expressing hCXCR1 (membranes)
T1 sequence (P25024 1-350): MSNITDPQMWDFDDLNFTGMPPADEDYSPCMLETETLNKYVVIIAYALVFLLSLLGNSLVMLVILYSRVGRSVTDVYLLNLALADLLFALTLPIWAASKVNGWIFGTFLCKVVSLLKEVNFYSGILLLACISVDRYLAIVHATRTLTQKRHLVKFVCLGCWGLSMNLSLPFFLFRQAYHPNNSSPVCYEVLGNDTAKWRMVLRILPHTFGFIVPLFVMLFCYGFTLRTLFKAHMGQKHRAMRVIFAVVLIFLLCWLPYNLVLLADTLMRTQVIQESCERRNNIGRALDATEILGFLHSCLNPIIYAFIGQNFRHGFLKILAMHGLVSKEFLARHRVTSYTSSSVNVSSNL
Nature of the experiment: CXCR1 SPA assay ([125I]-IL-8 binding, hCXCR1-CHO membranes). Particulars: [125I]-IL-8 binding to hCXCR1-CHO membranes. The method, then: For each well of a 96 well plate, a reaction mixture of 10 μg hCXCR1-CHO overexpressing membranes (Biosignal) and 200 μg/well WGA-SPA beads (Amersham) in 100 μl was prepared in CXCR1 assay buffer (25 mM HEPES, pH 7.8, 2 mM CaCl2, 1 mM MgCl2, 125 mM NaCl, 0.1% BSA) (Sigma). A 0.4 nM stock of ligand, [125I]-IL-8 (NEN) was prepared in the CXCR1 assay buffer. 20× stock solutions of test compounds were prepared in DMSO (Sigma). A 6× stock solution of IL-8 (R&D) was prepared in […] assay buffer. The above solutions were added to a 96-well assay plate (PerkinElmer) as follows: 10 μl test compound or DMSO, 40 μl CXCR1 assay buffer or IL-8 stock, 100 μl of reaction mixture, 50 μl of ligand stock (Final [Ligand]=0.1 nM). The assay plates were shaken for 5 minutes on plate shaker, then incubated for 8 hours before cpm/well were determined in Microbeta Trilux counter (PerkinElmer). % Inhibition of Total binding-NSB (250 nM IL-8) was determined for IC50 values.
Alternative CXCR1 SPA Assay
Protocol using CXCR1-expressing membranes from Biosignal Packard
For each 50 μl reaction, a working stock of 0.25 μg/μl hCXCR1-CHO over-expressing membranes with a specific activity of 0.05 pmol/mg (Biosignal Packard) and 25 μg/μl WGA-SPA beads (Perkin Elmer Life Sciences) was prepared in CXCR1 assay buffer (25 mM HEPES, pH 7.8, 0.1 mM CaCl2, 1 mM MgCl2, 100 mM NaCl) (Sigma). […] The assay plates were incubated for 4 hours before cpm/well were determined in a Microbeta Trilux counter (Perkin Elmer Life Sciences). IC50 values were quantified using nonlinear regression analysis in GraphPad Prism. […]
For each 50 μl reaction, a working stock of 0.025 μg/μl hCXCR1-CHO over-expressing membranes with a specific activity of 3.47 pmol/mg (Euroscreen) and 5 μg/μl WGA-SPA beads (Perkin Elmer Life Sciences) was prepared in CXCR1 assay buffer (25 mM HEPES, pH 7.8, 2.0 mM CaCl2, 1 mM MgCl2, 125 mM NaCl) (Sigma). […] The assay plates were incubated for 4 hours before cpm/well were determined in a Microbeta Trilux counter (Perkin Elmer Life Sciences). […]

The target of experiment [2] is T2, hCXCR2 (Homo sapiens, UniProt P25025).
T2 construct: purchased Biosignal / Biosignal Packard; host or cells: CHO cells over-expressing hCXCR2 (membranes)
T2 sequence (P25025 1-360): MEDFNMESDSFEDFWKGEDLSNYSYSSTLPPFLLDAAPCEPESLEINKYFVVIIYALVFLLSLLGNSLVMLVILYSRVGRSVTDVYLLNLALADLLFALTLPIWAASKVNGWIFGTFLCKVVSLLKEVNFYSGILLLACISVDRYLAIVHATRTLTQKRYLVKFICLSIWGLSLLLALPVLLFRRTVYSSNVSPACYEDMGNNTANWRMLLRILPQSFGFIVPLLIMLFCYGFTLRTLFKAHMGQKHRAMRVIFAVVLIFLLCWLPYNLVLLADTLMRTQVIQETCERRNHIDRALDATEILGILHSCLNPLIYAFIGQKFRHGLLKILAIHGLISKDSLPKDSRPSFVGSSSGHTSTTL
Nature of the experiment: CXCR2 SPA assay ([125I]-IL-8 binding, hCXCR2-CHO membranes). Particulars: [125I]-IL-8 binding to hCXCR2-CHO membranes. The method, then: For each well of a 96 well plate, a reaction mixture of 4 μg hCXCR2-CHO overexpressing membranes (Biosignal) and 200 μg/well WGA-SPA beads (Amersham) in 100 μl was prepared in CXCR2 assay buffer (25 mM HEPES, pH 7.4, 2 mM CaCl2, 1 mM MgCl2). A 0.4 nM stock of ligand, [125I]-IL-8 (NEN), was prepared in the CXCR2 assay buffer. 20× stock solutions of test compounds were prepared in DMSO (Sigma). A 6× stock solution of GRO-α (R&D) was prepared in CXCR2 assay buffer. The above solutions were added to a 96-well assay plate (PerkinElmer or Corning) as follows: 10 μl test compound or DMSO, 40 ul CXCR2 assay buffer or GRO-α stock, 100 μl of reaction mixture, 50 μl of ligand stock (Final [Ligand]=0.1 nM). When 40× stock solutions of test compounds in DMSO were prepared, then the above protocol was used except instead 5 μl test compound or DMSO and 45 μl CXCR2 assay buffer were used. […]
For each 50 μl reaction, a working stock of 0.031 μg/μl hCXCR2-CHO over-expressing membranes with a specific activity of 0.4 pmol/mg (Biosignal Packard) and 2.5 μg/μl WGA-SPA beads (Perkin Elmer Life Sciences) was prepared in CXCR2 assay buffer (25 mM HEPES, pH 7.4, 2.0 mM CaCl2, 1 mM MgCl2) (Sigma). […] The assay plates were incubated for 2 hours before cpm/well were determined in a Microbeta Trilux counter (Perkin Elmer Life Sciences). IC50 values were quantified using nonlinear regression analysis in GraphPad Prism. […]
For each 200 μl reaction, a working stock of 0.02 μg/μl hCXCR2-CHO over-expressing membranes with a specific activity of 0.6 pmol/mg (Biosignal Packard) and 2 μg/μl WGA-SPA beads (Perkin Elmer Life Sciences) was prepared in CXCR2 assay buffer (25 mM HEPES, pH 7.4, 2.0 mM CaCl2, 1 mM MgCl2) (Sigma). […] The assay plates were incubated for 2 hours before cpm/well were determined in a Microbeta Trilux counter (Perkin Elmer Life Sciences). IC50 values were quantified using nonlinear regression analysis in GraphPad Prism.

The target in experiment [3] is T3, CCR7 (Homo sapiens, UniProt P32248).
T3 sequence (P32248 25-378): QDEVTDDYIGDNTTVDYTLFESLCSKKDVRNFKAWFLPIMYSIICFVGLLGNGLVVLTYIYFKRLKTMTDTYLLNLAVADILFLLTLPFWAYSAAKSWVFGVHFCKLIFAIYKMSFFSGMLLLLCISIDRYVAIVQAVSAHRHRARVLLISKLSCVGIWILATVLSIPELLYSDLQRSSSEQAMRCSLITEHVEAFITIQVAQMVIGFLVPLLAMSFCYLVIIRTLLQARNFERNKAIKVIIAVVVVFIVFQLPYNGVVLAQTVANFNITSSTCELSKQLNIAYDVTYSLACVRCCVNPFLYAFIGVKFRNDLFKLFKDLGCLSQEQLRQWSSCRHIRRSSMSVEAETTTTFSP
The experiment in a line: CCR7 [35S]GTPγS exchange assay (SPA, Ba/F3-CCR7 membranes). On the technique in general: Binding of GTPγS marks nucleotide exchange on a G protein.
Protocol: CCR7 [^35S]GTPγS Exchange Assay.
The exchange of guanosine 5′-[γ-^35S]triphospate ([^35S]GTPγS, triethylammonium salt; specific activity 1250 Ci/mmol; NEN Boston, Mass.) was measured using a scintillation proximity assay (SPA) as previously described (Cox, et. al., Mol. Pharmacol., 59, 2001, 707-15). For each assay point, 2 μg of membrane was preincubated for 30 min at room temperature with 200 μg wheat germ agglutinin-coated SPA beads (WGA-SPA; Amersham, Arlington Heights, Ill.) in SPA binding buffer (50 mM HEPES, 10 mM MgCl2, 1 mM EDTA, 100 mM NaCl, 0.1% BSA, pH 7.6). The beads and membranes were transferred to a 96-well Isoplate (Wallac, Gaithersburg, Md.) and incubated with 10 μM guanosine 5′-diphosphate (GDP) in the presence or absence of 2 nM MIP-30 and/or compounds for 60 min at room temperature. The incubation continued for another 60 min. following the addition of 0.1 nM [^35S]GTPγS. Membrane-bound [^35S]GTPγS was measured using a 1450 Microbeta Trilux counter (Wallac, Gaithersburg, Md.).

Turning to `CC(C)c1coc([C@H](NC2=NS(=O)(=O)N=C2Nc2ccc(Br)c(C(=O)N(C)C)c2O)C(C)(C)C)c1` [Example 56], the results for the Ki in experiment [1] and in experiment [2] were 4 nM and 7 nM, respectively. The matching figures for `CC[C@@H](Nc1n[s+]([O-])nc1Nc1cccc(C(=O)N(C)C)c1O)c1cc(C(C)C)co1` (stereo partly drawn) [Example 201.1]: 123 nM and 3.5 nM. The matching figures for `Cc1cc([C@H](Nc2n[s+]([O-])nc2Nc2cccc(C(=O)N(C)C)c2O)C(C)C)oc1C` (stereo partly drawn) [Example 201.9]: 50 nM and 2.7 nM.

As to `CCN(CC)S(=O)(=O)c1scc(NC2=NS(=O)(=O)N=C2N[C@@H](c2ccc(C)o2)C(C)(C)C)c1O` [Example 2065], the EC50 in experiment [3] is 13 nM.

`Cc1ccc([C@H](NC2=NS(=O)(=O)N=C2Nc2csc(S(=O)(=O)N3CCOCC3)c2O)C(C)(C)C)o1` [Example 2066] registered an EC50 in experiment [3] of 16 nM. Same read-out and setting: the value for `CCC(C)(C)[C@@H](NC1=NS(=O)(=O)N=C1Nc1cccc(C(=O)N(C)C)c1O)c1ccc(C)o1` [Example 2106] was 12 nM.
